Assay results from publication PMC12655637, “Design, Synthesis, and Mechanistic Study of Novel Ciprofloxacin/Thiazole Chalcone Hybrids as Potential Anticancer Agents” (Pharmaceuticals, 2025).

Experiments:
786−0 = assay: NCI-60 screening, one-dose (10 µM) and five-dose, SRB; format: cell-based, human
M14 = assay: as above; format: cell-based, human
SNB-75 = assay: as above; format: cell-based, human
MOLT-4 = assay: as above; format: cell-based, human
RXF 393 = assay: as above; format: cell-based; settings: Homo sapiens; 10 μM; RXF 393, Renal Cancer; read-out: Growth percentage
DU-145 = assay: as above; format: cell-based, human
SK-MEL-5 = assay: as above; format: cell-based, human
SR = assay: as above; format: cell-based, human; settings: five-dose
OVCAR-3 = assay: as above; format: cell-based
EKVX = assay: as above; format: cell-based, human
UACC-257 = assay: as above; format: cell-based, human
TK-10 = assay: as above; format: cell-based, human
UACC-62 = assay: as above; format: cell-based
[1] = tested on: 60 human cancer cell lines; assay: NCI-60 screening, full panel (mean growth, MID a, ranges over all lines)
Procedure: The screening was performed in accordance with the protocols set forth by the Drug Evaluation Department of the National Cancer Institute (NCI), Bethesda, USA, for in vitro anticancer efficacy at a single concentration of 10 µM against a panel of 60 cancer cell lines derived from nine distinct organs (https://dctd.cancer.gov/data-tools-biospecimens/data (accessed on 15 March 2023 and 6 January 2024)) [37].
The log10 GI50, log10 TGI, and log10 LC50 values were subsequently calculated as the averages of the log10 values of the respective individual GI50, TGI, and LC50 measurements. Negative numbers signified the most sensitive cell lines.
One way to measure a compound’s selectivity is to divide its subpanel MID^b (in μM) by the MID^a (in μM), which is the average sensitivity of all cell lines to the test agent.
At the National Cancer Institute (NCI) in Bethesda, USA, researchers examined the anticancer potential of the target compounds under investigation using nine panels of sixty different cell lines obtained from nine different cancers that were housed in the NCI library. Following the protocols laid out by the National Cancer Institute (https://dctd.cancer.gov/data-tools-biospecimens/data (accessed on 15 March 2023 and 6 January 2024)), the screening procedures were carried out [37]. The anticancer screening was carried out at a single dose of 10^−5 M; the results obtained were expressed as growth inhibition (%).
The anti-cancer potential of the tested compounds was evaluated at the National cancer institute (NCI), Bethesda, USA, against 9 panels of 60 various cell lines derived from nine human tumours available usually at NCI library. The procedures for the screening were described in details in NCI website (dttp://www.dtp.nci.nih.gov.) and were done according to NCI protocols. The anticancer screening was carried out at single dose of 10^-5 M. The results obtained as growth inhibition (%).
Cell lines were grown in Roswell Park Memorial Institute medium (RPMI) with 5% fetal bovine serum and 2% μM L-glutamine. Cancer cells are inoculated into 96 well microtiter plates in 100 μL at plating densities ranging from 5000 to 40,000 cells/well depending on the doubling time of individual cell lines. Then microtiter plates are incubated at 37 °C, 5% CO2, 95% air and 100% relative humidity for 24 h prior to the addition of the tested compounds. After 24 h, two plates of each cell line are fixed in situ with trichloroacetic acid (TCA). The tested compounds were dissolved in dimethyl sulfoxide (DMSO) and stored in the freezer prior to use. An aliquot of frozen drug concentrate is diluted to the desired concentration with complete medium containing 50 μg/mL gentamicin.

RPMI-8226 = assay: NCI-60 screening, one-dose (10 µM) and five-dose, SRB; format: cell-based, human
KM12 = assay: as above; format: cell-based, human; settings: Homo sapiens; five-dose; KM12
[2] = Homo sapiens, five-dose, SNB-75
[3] = Homo sapiens, five-dose, MOLT-4
[4] = Homo sapiens, five-dose, DU-145
[5] = Homo sapiens, five-dose, SK-MEL-5
[6] = Homo sapiens, five-dose, OVCAR-3
[7] = Homo sapiens, five-dose, UACC-257
[8] = Homo sapiens, five-dose, UACC-62

Question: How did the activity at 10 µM (786−0; Homo sapiens, 10 μM, 786−0, Renal Cancer, read-out: Growth percentage) turn out when Cc1nc(SCC(=O)N2CCN(c3cc4c(cc3F)c(=O)c(C(=O)O)cn4C3CC3)CC2)sc1C(=O)/C=C/c1cccc(F)c1 [Compound 4d, (E)-1-Cyclopropyl-6-fluoro-7-(4-(2-((5-(3-(3-fluorophenyl)acryloyl)-4-methylthiazol-2-yl)thio)acetyl)piperazin-1-yl)-4-oxo-1,4-dihydroquinoline-3-carboxylic Acid] was run?
Answer: Its activity at 10 µM is 41.9%.

Question: What about the IC50 (786−0; Homo sapiens, five-dose, 786−0) of the same compound?
Answer: The IC50 was > 100 µM.

Question: And the CC50 (786−0; Homo sapiens, five-dose, 786−0, read-out: LC50 (the source's name))?
Answer: Its CC50 is > 100 µM.

Question: And the TGI (786−0; five-dose, 786−0)?
Answer: The TGI was 100.0 µM.

Question: What about the activity at 10 µM (M14; Homo sapiens, 10 μM, M14, Melanoma, read-out: Growth percentage) of the same compound?
Answer: Its activity at 10 µM is -15.3%.

Question: And the GI50 (M14; Homo sapiens, five-dose, M14)?
Answer: Its GI50 is 12 µM.

Question: What about the IC50 (M14; Homo sapiens, five-dose, M14) of the same compound?
Answer: Its IC50 is > 100 µM.

Question: What about the CC50 (M14; Homo sapiens, five-dose, M14, read-out: LC50 (the source's name)) of the same compound?
Answer: Its CC50 is > 100 µM.

Question: What about the TGI (M14; five-dose, M14) of the same compound?
Answer: The TGI was 100.0 µM.

Question: And the activity at 10 µM (SNB-75; Homo sapiens, 10 μM, SNB-75, CNS Cancer, read-out: Growth percentage)?
Answer: Its activity at 10 µM is 49.1%.

Question: And the GI50 (SNB-75; [2])?
Answer: Its GI50 is > 100 µM.

Question: And the IC50 (SNB-75; [2])?
Answer: The IC50 was > 100 µM.

Question: And the CC50 (SNB-75; Homo sapiens, five-dose, SNB-75, read-out: LC50 (the source's name))?
Answer: The CC50 was > 100 µM.

Question: And the TGI (SNB-75; five-dose, SNB-75)?
Answer: Its TGI is 100.0 µM.

Question: And the activity at 10 µM (MOLT-4; Homo sapiens, 10 μM, MOLT-4, Leukemia, read-out: Growth percentage)?
Answer: The activity at 10 µM was 0.79%.

Question: What about the GI50 (MOLT-4; [3]) of the same compound?
Answer: Its GI50 is 3.4 µM.

Question: And the IC50 (MOLT-4; [3])?
Answer: The IC50 was 4.8 µM.

Question: And the LC50 (concentration killing 50% of cells) (MOLT-4; [3])?
Answer: The LC50 (concentration killing 50% of cells) was 53.7 µM.

Question: And the TGI (MOLT-4; five-dose, MOLT-4)?
Answer: Its TGI is 0.34 µM.

Question: And the activity at 10 µM (RXF 393)?
Answer: Its activity at 10 µM is -25.9%.

Question: And the activity at 10 µM (DU-145; Homo sapiens, 10 μM, DU-145, Prostate Cancer, read-out: Growth percentage)?
Answer: Its activity at 10 µM is 73.7%.

Question: What about the GI50 (DU-145; [4]) of the same compound?
Answer: Its GI50 is > 100 µM.

Question: What about the IC50 (DU-145; [4]) of the same compound?
Answer: Its IC50 is > 100 µM.

Question: And the CC50 (DU-145; Homo sapiens, five-dose, DU-145, read-out: LC50 (the source's name))?
Answer: Its CC50 is > 100 µM.

Question: What about the TGI (DU-145; five-dose, DU-145) of the same compound?
Answer: Its TGI is 100.0 µM.

Question: And the activity at 10 µM (SK-MEL-5; Homo sapiens, 10 μM, SK-MEL-5, Melanoma, read-out: Growth percentage)?
Answer: The activity at 10 µM was 45.1%.

Question: And the GI50 (SK-MEL-5; [5])?
Answer: The GI50 was 42.7 µM.

Question: What about the IC50 (SK-MEL-5; [5]) of the same compound?
Answer: The IC50 was > 100 µM.

Question: What about the CC50 (SK-MEL-5; Homo sapiens, five-dose, SK-MEL-5, read-out: LC50 (the source's name)) of the same compound?
Answer: The CC50 was > 100 µM.

Question: What about the TGI (SK-MEL-5; five-dose, SK-MEL-5) of the same compound?
Answer: Its TGI is 100.0 µM.

Question: And the GI50 (SR; Homo sapiens)?
Answer: The GI50 was 1.4 µM.

Question: What about the IC50 (SR; Homo sapiens) of the same compound?
Answer: Its IC50 is 2.3 µM.

Question: What about the CC50 (SR; Homo sapiens, read-out: LC50 (the source's name)) of the same compound?
Answer: Its CC50 is 5.3 µM.

Question: What about the TGI (SR) of the same compound?
Answer: The TGI was 100.0 µM.

Question: What about the activity at 10 µM (OVCAR-3; Homo sapiens, 10 μM, OVCAR-3, Ovarian Cancer, read-out: Growth percentage) of the same compound?
Answer: The activity at 10 µM was -10.9%.

Question: And the GI50 (OVCAR-3; [6])?
Answer: The GI50 was 13.5 µM.

Question: And the IC50 (OVCAR-3; [6])?
Answer: The IC50 was > 100 µM.

Question: And the CC50 (OVCAR-3; Homo sapiens, five-dose, OVCAR-3, read-out: LC50 (the source's name))?
Answer: The CC50 was > 100 µM.

Question: And the TGI (OVCAR-3; five-dose, OVCAR-3)?
Answer: The TGI was 100.0 µM.

Question: What about the activity at 10 µM (EKVX; Homo sapiens, 10 μM, Non-Small-Cell Lung Cancer, read-out: Growth percentage) of the same compound?
Answer: The activity at 10 µM was 70.2%.

Question: What about the GI50 (EKVX; Homo sapiens, five-dose) of the same compound?
Answer: Its GI50 is 1.7 µM.

Question: And the IC50 (EKVX; Homo sapiens, five-dose)?
Answer: Its IC50 is 5.9 µM.

Question: And the CC50 (EKVX; Homo sapiens, five-dose, read-out: LC50 (the source's name))?
Answer: The CC50 was > 100 µM.

Question: What about the TGI (EKVX; five-dose) of the same compound?
Answer: The TGI was 100.0 µM.

Question: What about the activity at 10 µM (UACC-257; Homo sapiens, 10 μM, UACC-257, Melanoma, read-out: Growth percentage) of the same compound?
Answer: The activity at 10 µM was 53.9%.

Question: What about the GI50 (UACC-257; [7]) of the same compound?
Answer: The GI50 was 46.8 µM.

Question: What about the IC50 (UACC-257; [7]) of the same compound?
Answer: Its IC50 is > 100 µM.

Question: What about the CC50 (UACC-257; Homo sapiens, five-dose, UACC-257, read-out: LC50 (the source's name)) of the same compound?
Answer: Its CC50 is > 100 µM.

Question: And the TGI (UACC-257; five-dose, UACC-257)?
Answer: Its TGI is 100.0 µM.

Question: What about the activity at 10 µM (TK-10; Homo sapiens, 10 μM, TK-10, Renal Cancer, read-out: Growth percentage) of the same compound?
Answer: The activity at 10 µM was 97.5%.

Question: What about the GI50 (TK-10; Homo sapiens, five-dose, TK-10) of the same compound?
Answer: Its GI50 is > 100 µM.

Question: And the IC50 (TK-10; Homo sapiens, five-dose, TK-10)?
Answer: Its IC50 is > 100 µM.

Question: What about the CC50 (TK-10; Homo sapiens, five-dose, TK-10, read-out: LC50 (the source's name)) of the same compound?
Answer: Its CC50 is > 100 µM.

Question: What about the TGI (TK-10; five-dose, TK-10) of the same compound?
Answer: The TGI was 100.0 µM.

Question: And the activity at 10 µM (UACC-62; Homo sapiens, 10 μM, UACC-62, Melanoma, read-out: Growth percentage)?
Answer: The activity at 10 µM was 33.1%.

Question: What about the GI50 (UACC-62; [8]) of the same compound?
Answer: The GI50 was 25.7 µM.

Question: What about the IC50 (UACC-62; [8]) of the same compound?
Answer: The IC50 was > 100 µM.

Question: What about the CC50 (UACC-62; Homo sapiens, five-dose, UACC-62, read-out: LC50 (the source's name)) of the same compound?
Answer: Its CC50 is > 100 µM.

Question: What about the TGI (UACC-62; five-dose, UACC-62) of the same compound?
Answer: The TGI was 100.0 µM.

Question: What about the CC50 ([1]; Homo sapiens, read-out: LC50) of the same compound?
Answer: The CC50 was 0.6 to 100 µM.

Question: What about the activity at 10 µM ([1]; Homo sapiens, read-out: Mean growth percentage) of the same compound?
Answer: Its activity at 10 µM is 20.2%.

Question: And the “Full-panel MG-MID” value ([1]; mean sensitivity across all cell lines in the panel)?
Answer: The value was 70.2 µM.

Question: What about the IC50 (RPMI-8226; Homo sapiens, RPMI-8226, RPMI-8226) of the same compound?
Answer: Its IC50 is 0.3 µM.

Question: What about the IC50 (RPMI-8226; Homo sapiens, RPMI-8226, five-dose, RPMI-8226) of the same compound?
Answer: Its IC50 is 0.34 µM.

Question: What about the GI50 (RPMI-8226; Homo sapiens, five-dose, RPMI-8226) of the same compound?
Answer: Its GI50 is 0.19 µM.

Question: And the CC50 (RPMI-8226; Homo sapiens, five-dose, RPMI-8226, read-out: LC50 (the source's name))?
Answer: The CC50 was 0.6 µM.

Question: What about the TGI (RPMI-8226; five-dose, RPMI-8226) of the same compound?
Answer: Its TGI is 2.63 µM.

Question: What about the GI50 (KM12) of the same compound?
Answer: The GI50 was 0.52 µM.

Question: What about the IC50 (KM12) of the same compound?
Answer: The IC50 was 0.69 µM.

Question: What about the LC50 (KM12) of the same compound?
Answer: Its LC50 is 6.92 µM.
